These results are taken from patent US12612599B2, “Compositions and methods for microglia replacement therapy” (Savanna Biotherapeutics, Inc., priority 2018, dated 2026).

This assay concerns bone marrow derived macrophages (BMDMs) expressing human CSF1R variants. The assay is described as follows: In vitro survival assay of retrovirally transduced bone marrow derived macrophages expressing CSF1R variants under PLX3397. The assay is classed as cell-based, mouse. Conditions: PLX3397 100 nM, 48 hours, CellTiter-Glo 2; compared to cells expressing WT CSF1R; FIG. 23. On the technique in general: ATP-based viability assays read luminescence as a measure of living cells.
As to “M637L: human CSF1R variant, SEQ ID NO: 11”, the “ratio between number of cells following treatment with CSF1R inhibitor (PLX-3397) + CSF1 and number of cells following complete deprivation of CSF1” value is on record as “higher ratio than cells expressing WT CSF1R”.

Consider “D796A: human CSF1R variant, SEQ ID NO: 12”, for which the “ratio between number of cells following treatment with CSF1R inhibitor (PLX-3397) + CSF1 and number of cells following complete deprivation of CSF1” value was “higher ratio than cells expressing WT CSF1R”.

Take “Y546F: human CSF1R variant, SEQ ID NO: 14”: the “ratio between number of cells following treatment with CSF1R inhibitor (PLX-3397) + CSF1 and number of cells following complete deprivation of CSF1” value was “higher ratio than cells expressing WT CSF1R”.

Consider “G795A: human CSF1R variant, SEQ ID NO: 10”, for which the “ratio between number of cells following treatment with CSF1R inhibitor (PLX-3397) + CSF1 and number of cells following complete deprivation of CSF1” value is “higher ratio than cells expressing WT CSF1R”.
